Assay results from patent US20070135509A1, “Indolone compounds useful to treat cognitive impairment” (priority 2005, published 2007).

What was measured:
[1] = tested on: C57BL/6 mice; assay: Contextual fear conditioning (contextual memory, freezing to context); assay type: in vivo; conditions: for 24 h contextual memory (freezing) / freezing to context 24 hr after training: mean±SEM; for 24 h contextual memory (freezing): controls 22.3±3.2%; for freezing to context 24 hr after training: controls 24.5±3.2%
Excerpt: Contextual Memory. Contextual memory is a form of Pavlovian fear conditioning in which a naïve mouse is placed into a novel chamber (context) containing distinct visual, olfactory and tactile cues. After a few seconds of acclimation, the mouse receives a brief, mild electric shock to its feet. From this negative experience, the mouse will remember for months that that chamber is dangerous. When placed back into the same context at some later time after training, the mouse's natural response to danger is to “freeze,” sitting stone still for many seconds. This is similar to what happens to humans when they experience fear. The percent of time during an observation period that the mouse spends frozen represents a quantitative measure (memory score) of its memory of the context.
(§1) Subjects. Young-adult (10-12 weeks old) C57B1/6 male mice (Taconic, N.Y.) were used. The mice were housed (5 mice) in standard laboratory cages and maintained on a 12:12 light-dark cycle. The experiments were always conducted during the light phase of the cycle. The day before the initiation of the experiment, mice were housed single in individual cages and maintained so until the end of the experiment. With the exception of testing times, the mice had liberal access to food and water. The experiments were conducted in accordance with Animal Welfare Assurance #A3280-01. Animals were maintained in accordance with the Animal Welfare Act and Department of Health and Human Services Guide.
Contextual Conditioning Training and Testing. To assess contextual memory, a standardized contextual fear conditioning task originally developed for evaluation of memory in cyclic AMP response element binding protein (“CREB”) knock-out mice was used (Bourtchouladze et al., 1994). On the training day, the mouse was placed into the conditioning chamber (Med Associates, Inc., VA) for 2 minutes before the onset of unconditioned stimulus (US), 0.5 mA, of 2 second foot shock. The US was repeated two times with a 1 min inter-trial interval between shocks. Training was performed by automated software package (Med Associates, Inc., VA). After the last training trial, the mice were left in the conditioning chamber for another 30 seconds and were then placed back in their home cages. 24 hours after training, the mouse was placed into the same training chamber and contextual memory was assessed by scoring freezing behavior (‘freezing’ serves as memory score). Freezing was defined as the complete lack of movement in intervals of 5 seconds (Kim et al., 1993; Phillips & LeDoux, 1992; Bourtchouladze et al., 1994; 1998; Abel et al., 1997). Total testing time lasted 3 minutes. After each experimental subject, the experimental apparatus was thoroughly cleaned with 75% ethanol, water, dried, and ventilated for a few minutes.
Contextual Conditioning Data Analysis. All experiments were designed and performed in a balanced fashion, meaning that (i) for each experimental condition (e.g. a specific dose-effect) we used an equal number of experimental and control mice; (ii) each experimental condition was replicated 2-3 independent times, and replicate days were added to generate final number of subjects. The proceeding of each experiment was filmed. In each experiment, the experimenter was unaware (blind) to the treatment of the subjects during training and testing. Data were analyzed by Student's unpaired t test using a software package (Statwiew 5.0.1; SAS Institute, Inc). All values in the text and figures are expressed as mean±SEM.
Drug Compound Administration. Compound 2 was freshly prepared from a stock solution (10 mg/ml DMSO), which was maintained at 4° C. Compound 2 was dissolved in a suspension of 5% DMSO and 95% CMC at 2% in water and administered intraperitoneally (I.P.) at doses 5 mg/kg; 10 mg/kg and 30 mg/kg 20 min before training or at 1 mg/kg and 30 mg/kg orally 60 min before training. Control animals received vehicle alone (5% DMSO and 95% CMC at 2% in water). […]

[2] = tested on: C57BL/6 mice; assay: Object recognition (novel object recognition memory); assay type: in vivo; conditions: for Discrimination Index (DI), 24 hour object recognition: mean±SEM, vehicle -10.2±4
Excerpt: Object Recognition. […] This task relies on the natural curiosity of rodents to explore novel objects in their environments more than familiar ones. Obviously, for an object to be “familiar,” the animal must have attended to it before and remembered that experience.
During training, a mouse is presented with two identical, novel objects. Mice explore them equally by approaching, sniffing and crawling over them. During testing, the animal is presented with the training object and a second, novel one. Memory of the training object renders it familiar to the animal, and it then spends more time exploring the new novel object rather than the familiar one (Bourtchouladze t al., 2003). […] Consistent with these findings, rats with the PFC lesions show poor working memory when they are required to discriminate between familiar and novel objects (Mitchell, 1998).
as §1
Object Recognition Training and Testing. […]
Object Recognition Data Analysis. […] Types were reviewed by a blinded observer and the following behavioral parameters were determined: time of exploration of an each object; the total time of exploration of the objects; number of approaches to the objects; and time (latency) to first approach to an object. The discrimination index—memory score—was determined as described previously (Ennaceur et al., 1997, Bourtchouladze et al., 2003). […] All values in the text and figures are expressed as mean±SEM. […]

Structure (SMILES): O=C1C(=Nc2cccc(C(F)(F)F)c2)c2ccccc2N1c1ccccc1 [Compound 2, 1-PHENYL-3-[[3-(TRIFLUOROMETHYL)PHENYL]IMINO]-1,3-DIHYDRO-2H-INDOL-2-ONE]
- 24 h contextual memory (freezing) ([1]; 1 mg/kg oral 60 min before training, p<0.01): 36.4±3.9%
- freezing to context 24 hr after training ([1]; 5 mg/kg I.P. 20 min before training, p<0.05): 40.3±4.7%
- Effects on contextual memory in mice (FIG. 1) ([1]; 5 mg/kg, 10 mg/kg and 30 mg/kg i.p., 24 hours after training): significantly facilitated freezing to context
- freezing to context 24 hr after training ([1]; 10 mg/kg I.P. 20 min before training, p<0.01): 51.4±9.1%
- freezing to context 24 hr after training ([1]; 30 mg/kg I.P. 20 min before training, p<0.001): 49.1±3.7%
- 24 h contextual memory (freezing) ([1]; 30 mg/kg oral 60 min before training, p<0.05): 34.1±4.3%
- Effects on contextual memory in mice (FIG. 2) ([1]; single dose of 1 mg/kg or 30 mg/kg orally, 24 hr): significantly enhanced 24 hr contextual memory
- Effect on object recognition memory in mice (FIG. 3) ([2]; 1 mg/kg and 5 mg/kg i.p. twenty (20) minutes before training, C57BL/6 mice): ameliorated long-term memory deficit
- Discrimination Index (DI), 24 hour object recognition ([2]; 1 mg/kg i.p. 20 minutes before 15-minute training, p<0.05): 5.1±6
- Discrimination Index (DI), 24 hour object recognition ([2]; 5 mg/kg i.p. 20 minutes before 15-minute training, p<0.0005): 18.8±6.6
